Here are results for five compounds from US20260317269A1, “Oxamate Derivatives and Prodrugs to Prevent CaOx Stone Formation” (Rutgers, The State University of New Jersey, priority 2023, published 2026).

A short description of the assay: CaOx crystallization inhibition assay, remaining free oxalate in solution measured with EnzyChrom oxalate assay kit (Assay B). The following applies: for pEC50 / Ratio: from EC50 in the CaOx crystallization inhibition assay; for pEC50: HEPES pH 6.8, r.t., footnote c not given; for pEC50 / EC50: 72 h; for EC50: inhibition of CaOx crystallization, 10 mM HEPES buffer, pH 6.8, 150 mM NaCl, supersaturated CaOx, r.t., remaining oxalate at OD 595 nm; for Ratio: ratio to citrate (citrate = 1). In kind it is biochemical. An excerpt: Calcium oxalate (CaOx) crystallization inhibition assays in HEPES buffer, pH 6.8 include Assay A and Assay B. Assay A: Fluorescence-based assay using Quin-2 to measure the concentration of free calcium in solution (Ex 340 nm/Em 495 nm) (FIG. 1). An example assay protocol is shown below.
Assay B: Spectrophotometric assay using EnzyChrom™ oxalate assay kit from Bioassay Systems (EOXA-100) to measure the concentration of free oxalate in solution at OD 595 nm.
For CaOx crystallization inhibition assay, equal volumes of 2 mM of CaCl2) was combined with […] of Na2Ox to generate […] supersaturated solutions of CaOx in 10 mM HEPES buffer, pH 6.8 containing 150 mM NaCl. The higher concentration of Ca^++ utilized in this assay was designed to mimic the typical calcium levels found in human urine. Following incubation with varying concentrations of inhibitors at r.t. for 72 h and subsequent centrifugation, the EnzyChrom™ oxalate assay kit (EOXA-100, BioAssay Systems) was employed to measure spectrophotometrically the remaining oxalate concentration in solution at 595 nm. This assay determined the EC50 for each inhibitor. This assay was used to determine the activity of about 50 oxamate derivatives synthesized. Separately, dose response curves can be obtained for calcium concentrations and inhibitors concentrations with supersaturated solution: 250 μM CaCl2+250 μM Na2C2O4 in 10 mM HEPES, pH 6.8+150 mM NaCl; Calcium concentration in supernatent after centrifuge was measured using Quin2 via a fluorescence assay (Ex 340 nm/Em 495 nm).
Table 1 lists the EC50's obtained using this assay for various oxamate derivatives, along with other structure features such as linker length and number of OMA units for SAR analysis.

As a reminder, the pEC50 is the negative decadic logarithm of the EC50, by convention in mol/L. Broadly, the EC50 is the midpoint of the concentration-response curve. A high value points to a need for much substance.

Consider `O=C(O)C(=O)NCCCC[C@H](NC(=O)C(=O)O)C(=O)O` [Compound 9, L-Lysine N^α,N^ε-dioxalate], for which the pEC50 came to 4.20, the EC50 was found to be 63.8 µM and the Ratio amounted to 10.
On to `O=C(O)C(=O)NCCCC[C@H](NC(=O)C(=O)O)C(=O)NCCCCCNC(=O)[C@H](CCCCNC(=O)C(=O)O)NC(=O)C(=O)O` [Compound 19e, N,N′-(1,5-pentylene)bis(L-Lysinamide) N^α, N^α′,N^ε,N^ε′-tetraoxalate], for which the pEC50 is on record as 5.44, the EC50 was determined as 3.6 µM and the Ratio was 185.
For the compound `O=C(O)C(=O)NCCCC[C@H](NC(=O)C(=O)O)C(=O)NCCCCCCNC(=O)[C@H](CCCCNC(=O)C(=O)O)NC(=O)C(=O)O` [Compound 19f, N,N′-(1,6-hexylene)bis(L-Lysinamide) N^α, N^α′,N^ε,N^ε′-tetraoxalate], the negative logarithm of the EC50 (pEC50) was 6.03, the EC50 amounted to 0.925 µM and the Ratio is 719.
As to `O=C(O)C(=O)NCCNC(=O)C(=O)O` [Compound 11b], the pEC50 is recorded as 3.89, the EC50 was found to be 127 µM and the Ratio was 5.
As to `O=C(O)CC(O)(CC(=O)O)C(=O)O` [Citrate, reference compound], the negative-log EC50 (pEC50) is listed as 3.18, the EC50 was determined as 665 µM and the Ratio is reported as 1.
